Target: PARP1 (Homo sapiens, UniProt P09874)
Test: PARP1 biochemical DELFIA assay (auto-PARylation)
Conditions: Table 1

PARP1, sequence (P09874 whole entry): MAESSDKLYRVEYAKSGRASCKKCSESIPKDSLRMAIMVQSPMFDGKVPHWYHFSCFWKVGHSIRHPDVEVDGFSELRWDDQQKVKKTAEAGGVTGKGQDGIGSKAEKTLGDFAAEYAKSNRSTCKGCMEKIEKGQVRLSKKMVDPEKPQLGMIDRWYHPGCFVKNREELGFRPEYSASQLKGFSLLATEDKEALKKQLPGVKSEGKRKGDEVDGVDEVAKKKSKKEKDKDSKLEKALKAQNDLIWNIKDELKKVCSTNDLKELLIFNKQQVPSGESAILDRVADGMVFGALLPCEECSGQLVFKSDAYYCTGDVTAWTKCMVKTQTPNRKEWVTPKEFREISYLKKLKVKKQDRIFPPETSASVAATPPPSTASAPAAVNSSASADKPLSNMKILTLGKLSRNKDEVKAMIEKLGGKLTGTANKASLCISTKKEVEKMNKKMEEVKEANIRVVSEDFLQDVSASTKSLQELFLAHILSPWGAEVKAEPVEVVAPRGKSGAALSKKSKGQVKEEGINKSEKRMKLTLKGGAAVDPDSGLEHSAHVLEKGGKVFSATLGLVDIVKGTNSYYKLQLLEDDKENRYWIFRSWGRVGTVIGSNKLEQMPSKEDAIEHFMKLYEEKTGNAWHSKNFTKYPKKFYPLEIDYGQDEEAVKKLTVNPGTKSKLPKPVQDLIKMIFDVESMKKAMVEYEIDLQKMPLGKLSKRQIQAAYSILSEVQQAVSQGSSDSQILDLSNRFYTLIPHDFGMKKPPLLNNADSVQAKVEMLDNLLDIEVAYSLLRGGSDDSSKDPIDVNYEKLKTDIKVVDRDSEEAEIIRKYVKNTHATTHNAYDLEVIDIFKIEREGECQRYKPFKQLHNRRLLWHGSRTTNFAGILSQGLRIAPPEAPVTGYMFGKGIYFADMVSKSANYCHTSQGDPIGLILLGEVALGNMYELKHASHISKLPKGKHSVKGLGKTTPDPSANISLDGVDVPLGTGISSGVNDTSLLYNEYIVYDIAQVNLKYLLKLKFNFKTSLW

IC50, > 10000 nM:
O=C(CN1CCN(c2ncc(C(F)(F)F)cn2)CC1)N1CCCC1c1cc(C(F)(F)F)c(=O)[nH]n1 (single isomer, unassigned) [Compound 32b]

IC50, 100 to 1000 nM:
CCc1cc(C2CCCN(CCC(=O)N3CCN(c4ncc(C(F)(F)F)cn4)CC3)C2)n[nH]c1=O (single isomer, unassigned) [Compound 6b, 4-ethyl-6-(1-(3-oxo-3-(4-(5-(trifluoromethyl)pyrimidin-2-yl)piperazin-1-yl)propyl)piperidin-3-yl)pyridazin-3(2H)-one]
O=C(CCN1CCN(c2ncc(C(F)(F)F)cn2)CC1)N1CCCC(c2cc(C(F)(F)F)c(=O)[nH]n2)C1 (single isomer, unassigned) [Compound 9a]
O=C(CCC1CCN(c2ncc(C(F)(F)F)cn2)CC1)N1CCCC(c2cc(C(F)(F)F)c(=O)[nH]n2)C1 (single isomer, unassigned) [Compound 4a]
O=C(CN1CCN(c2ncc(C(F)(F)F)cn2)CC1)N1CCCC1c1cc(C(F)(F)F)c(=O)[nH]n1 (single isomer, unassigned) [Compound 32a]

IC50, 10 to 100 nM:
O=C(CN1CCCC(c2cc(C(F)(F)F)c(=O)[nH]n2)C1)N1CCN(c2ncc(C(F)(F)F)cn2)CC1 (single isomer, unassigned) [Compound 14a]
O=C(CCN1CCCC1c1cc(C(F)(F)F)c(=O)[nH]n1)N1CCN(c2ncc(C(F)(F)F)cn2)CC1 (single isomer, unassigned) [Compound 18a, 6-(1-(3-oxo-3-(4-(5-(trifluoromethyl)pyrimidin-2-yl)piperazin-1-yl)propyl)pyrrolidin-2-yl)-4-(trifluoromethyl)pyridazin-3(2H)-one]
O=C(CN1CCCC1c1cc(C(F)(F)F)c(=O)[nH]n1)N1CCN(c2ncc(C(F)(F)F)cn2)CC1 (single isomer, unassigned) [Compound 24b, 6-(1-(2-oxo-2-(4-(5-(trifluoromethyl)pyrimidin-2-yl)piperazin-1-yl)ethyl)pyrrolidin-2-yl)-4-(trifluoromethyl)pyridazin-3(2H)-one]

Same assay, conditions: Table 1A

IC50, 10 to 100 nM:
O=C(CN1CCCC1c1cc(C2CC2)c(=O)[nH]n1)N1CCN(c2ncc(C(F)(F)F)cn2)CC1 (racemic) [Compound 65rac]
O=C(CN1CCCC1c1cc(C(F)(F)F)c(=O)[nH]n1)N1CCN(c2ccc(C(F)(F)F)cn2)CC1 (single isomer, unassigned) [Compound 42b]
O=C(CN1CCCC1c1c[nH]c(=O)c(C(F)(F)F)c1)N1CCN(c2ncc(Cl)cn2)CC1 (single isomer, unassigned) [Compound 74a]
CC(C)(C)c1cnc(N2CCN(C(=O)CN3CCCC3c3cc(C(F)(F)F)c(=O)[nH]n3)CC2)nc1 (single isomer, unassigned) [Compound 82a]
O=C(CN1CCCC1c1cc(C(F)(F)F)c(=O)[nH]n1)N1CCN(c2ncc(C3CC3)cn2)CC1 (single isomer, unassigned) [Compound 69a]
O=C(CN1CCCC1c1c[nH]c(=O)c(C(F)(F)F)c1)N1CCN(c2ncc(C(F)(F)F)cn2)CC1 (single isomer, unassigned) [Compound 60a, 5-(1-(2-oxo-2-(4-(5-(trifluoromethyl)pyrimidin-2-yl)piperazin-1-yl)ethyl)pyrrolidin-2-yl)-3-(trifluoromethyl)pyridin-2(1H)-one]
O=C(CN1CCCC1c1cc(C(F)(F)F)c(=O)[nH]n1)N1CCN(c2ccc(Cl)cn2)CC1 (single isomer, unassigned) [Compound 41a]
O=C(CN1CCCC1c1cc(C(F)(F)F)c(=O)[nH]n1)N1CCN(c2ncc(F)cn2)CC1 (single isomer, unassigned) [Compound 43a]
N#Cc1ccc(N2CCN(C(=O)CN3CCCC3c3cc(C(F)(F)F)c(=O)[nH]n3)CC2)nc1 (racemic) [Compound 47rac]

IC50, 1000 to 10000 nM:
O=C(CN1Cc2ccccc2C1c1cc(C(F)(F)F)c(=O)[nH]n1)N1CCN(c2ncc(C(F)(F)F)cn2)CC1 (single isomer, unassigned) [Compound 104b, 6-(2-(2-oxo-2-(4-(5-(trifluoromethyl)pyrimidin-2-yl)piperazin-1-yl)ethyl)isoindolin-1-yl)-4-(trifluoromethyl)pyridazin-3(2H)-one]
CNC(=O)c1ccc(N2CCN(C(=O)CN3CCCC3c3cc(C(F)(F)F)c(=O)[nH]n3)CC2)cn1 (single isomer, unassigned) [Compound 37b]
O=C(CN1CCCC1c1cc(C(F)(F)F)c(=O)[nH]n1)N1CCN(c2ncc(Cl)cc2Cl)CC1 (single isomer, unassigned) [Compound 125b]
N#Cc1cc(C2CCCN2CC(=O)N2CCN(c3nc4cc(Cl)ccc4o3)CC2)n[nH]c1=O (single isomer, unassigned) [Compound 121b]
CN(c1ncc(C(F)(F)F)cn1)C1CCN(C(=O)CN2CCCC2c2cc(C(F)(F)F)c(=O)[nH]n2)CC1 (single isomer, unassigned) [Compound 107a]
N#Cc1cnc(N2CCN(C(=O)CN3CCCC3c3c[nH]c(=O)c(C(F)(F)F)c3)CC2)nc1 (single isomer, unassigned) [Compound 76a]
O=C(CN1CCCC1c1cc(C(F)(F)F)c(=O)[nH]n1)N1CCN(c2ccc(C(F)(F)F)cn2)CC1 (single isomer, unassigned) [Compound 42a]
Cn1c(N2CCN(C(=O)CN3CCCC3c3cc(C(F)(F)F)c(=O)[nH]n3)CC2)nc2ccccc21 (single isomer, unassigned) [Compound 97b]
O=C(CN1CCCC1c1cc(C(F)(F)F)c(=O)[nH]n1)N1CCN(c2ccc(Cl)cn2)CC1 (single isomer, unassigned) [Compound 41b]
O=C(CN1CCCC1c1n[nH]c(=O)c2ccccc12)N1CCN(c2ncc(C(F)(F)F)cn2)CC1 (single isomer, unassigned) [Compound 38b, 4-(1-(2-oxo-2-(4-(5-(trifluoromethyl)pyrimidin-2-yl)piperazin-1-yl)ethyl)pyrrolidin-2-yl)phthalazin-1(2H)-one]
CCc1cc(C2CCCN2CC(=O)N2CCN(c3ncc(C(F)(F)F)cn3)CC2)n[nH]c1=O (single isomer, unassigned) [Compound 40b]
O=C(CN1CCCC1c1cc(C(F)(F)F)c(=O)[nH]n1)N1CCN(c2nc3cc(F)ccc3o2)CC1 (single isomer, unassigned) [Compound 93b]
O=C(CN1CCCC1c1cc(C(F)(F)F)c(=O)[nH]n1)N1CCC(c2ncc(C(F)(F)F)cn2)CC1 (single isomer, unassigned) [Compound 70a]
O=C(CN1Cc2ccccc2C1c1cc(C(F)(F)F)c(=O)[nH]n1)N1CC(Oc2ncc(C(F)(F)F)cn2)C1 (single isomer, unassigned) [Compound 114b]

IC50, 100 to 1000 nM:
N#Cc1ccc2nc(N3CCN(C(=O)CN4CCCC4c4cc(C(F)(F)F)c(=O)[nH]n4)CC3)oc2c1 (single isomer, unassigned) [Compound 96a]
O=C(CN1Cc2ccccc2C1c1cc(C(F)(F)F)c(=O)[nH]n1)N1CCN(c2ncc(C(F)(F)F)cn2)CC1 (single isomer, unassigned) [Compound 104a, 6-(2-(2-oxo-2-(4-(5-(trifluoromethyl)pyrimidin-2-yl)piperazin-1-yl)ethyl)isoindolin-1-yl)-4-(trifluoromethyl)pyridazin-3(2H)-one]
COC1CC(c2cc(C(F)(F)F)c(=O)[nH]n2)N(CC(=O)N2CCN(c3ncc(C(F)(F)F)cn3)CC2)C1 (single isomer, unassigned) [Compound 138trans1, 6-(4-methoxy-1-(2-oxo-2-(4-(5-(trifluoromethyl)pyrimidin-2-yl)piperazin-1-yl)ethyl)pyrrolidin-2-yl)-4-(trifluoromethyl)pyridazin-3(2H)-one]
O=C(CN1CCCC1c1cc(C(F)(F)F)c(=O)[nH]n1)NC1CCN(c2ncc(C(F)(F)F)cn2)CC1 (single isomer, unassigned) [Compound 33b]
O=C(CN1CCOCC1c1cc(C(F)(F)F)c(=O)[nH]n1)N1CCN(c2ncc(C(F)(F)F)cn2)CC1 (single isomer, unassigned) [Compound 88b]
CNC(=O)c1cnc(N2CCN(C(=O)CN3CCCC3c3cc(C(F)(F)F)c(=O)[nH]n3)CC2)cn1 (single isomer, unassigned) [Compound 54a]
CNC(=O)c1ccc(N2CCN(C(=O)CN3CCC3c3cc(C(F)(F)F)c(=O)[nH]n3)CC2)cn1 (racemic) [Compound 53rac]
O=C(CN1CCCC1c1cc(C(F)(F)F)c(=O)[nH]n1)N1CCN(c2ncc(F)cc2F)CC1 (single isomer, unassigned) [Compound 83a]

IC50, ≤ 10 nM:
O=C(CN1CCCC1c1cc(C(F)(F)F)c(=O)[nH]n1)N1CCN(c2ncc(C(F)(F)F)s2)CC1 (racemic) [Compound 52rac]
O=C(CN1CCCC1c1cc(C(F)(F)F)c(=O)[nH]n1)N1CCN(c2ncc(OC(F)F)cn2)CC1 (single isomer, unassigned) [Compound 118a]

IC50, > 10000 nM:
N#Cc1cc(C2CCCN2CC(=O)N2CCN(c3nc4cc(F)ccc4o3)CC2)n[nH]c1=O (single isomer, unassigned) [Compound 149b]
O=C(CN1CCCCC1c1cc(C(F)(F)F)c(=O)[nH]n1)N1CCN(c2ncc(C(F)(F)F)cn2)CC1 (single isomer, unassigned) [Compound 66b]
N#Cc1ccc2nc(N3CCN(C(=O)CN4CCCC4c4cc(C#N)c(=O)[nH]n4)CC3)oc2c1 (single isomer, unassigned) [Compound 145b]
O=C(CN1CCCC1c1c[nH]c(=O)c(Cl)c1)N1CCN(c2ncc(C(F)(F)F)cn2)CC1 (single isomer, unassigned) [Compound 78b, 3-chloro-5-(1-(2-oxo-2-(4-(5-(trifluoromethyl)pyrimidin-2-yl)piperazin-1-yl)ethyl)pyrrolidin-2-yl)pyridin-2(1H)-one]
CN(c1ncc(C(F)(F)F)cn1)C1CCN(C(=O)CN2CCCC2c2cc(C(F)(F)F)c(=O)[nH]n2)CC1 (single isomer, unassigned) [Compound 107b]
